Results from US20240050420A1, “NANOMEDICINES FOR TREATMENT OF DISEASE” (Chapman University, priority 2022, published 2024).
“Also recorded” adds a separate entry of the source.

Columns and labels:
Pkd2 mice [1] = test: 9-week treatment of Pkd2 mice: body weight, survival, cysts, fibrosis, kidney fluorescence; conditions: long-term use, drug-alone 1 mg/kg i.v. daily
From the text: FIG. 5A: Kidney comparison of wild-type (WT) and Pkd2 kidneys after 9-weeks of treatment. Color, brightfield, fluorescent images were captured consecutively. The hematoxylin and eosin (H&E) sections were obtained from the same corresponding kidneys.
FIG. 5B: Fluorescence intensity measurements from isolated kidneys were normalized to total kidney volume (TKV). […] FIG. 5D: Total kidney weight measurement. FIG. 5D. Percent weight ratio of 2 kidneys to body weight (2 KW/BW). FIG. 5F: Total cyst number calculated using H&E staining. FIG. 5G: Kaplan-Meier survival curves analyzed with Log-rank test. N=5 for all experiments. *P<0.05, **P<0.01, ***P<0.001, ****P<0.0001 compared to wild-type vehicle. #P<0.05, ##P<0.01, #44P<0.001, #44t #P<0.0001 compared to Pkd2 vehicle. Statistical analysis was performed using ANOVA followed by Tukey's multiple comparison test.
Animal studies. […] All animal experimentation was conducted as double-blinded operators to disregard biases and critical analyses. All control (KspCre·Pkd2^WT/WT) and PKD (KspCre·Pkd2^flox/flox) non-inducible mice models were obtained from the Jackson Laboratory and Harvard Medical School.
Histology Studies. Sections of the mouse visceral organs (hearts, kidneys, livers, spleens, and lung)s, were collected and subjected to hematoxylin and eosin (H&E) staining by starting the tissue fixation using 10% formalin. Then, the tissues were dehydrated in buffered formalin, ethanol, and xylene. Finally, the tissues were embedded in liquid paraffin, sectioned (5 μm), and stained with H&E for histological examinations. The pathology slices were observed and imaged using a KEYENCE BZ-X710 microscope. Mouse normal and polycystic kidney sections were stained with Masson's trichrome to detect fibrosis using a Masson's Trichrome Stain Kit (Polysciences, Inc.).
Throughout the studies, KspCre·Pkd2^WT/WT and KspCre·Pkd2^flox/flox mouse models were used and are respectively referred to wild-type and Pkd2 mice henceforth.

ADPKD cells = test: 3D cyst culture in Matrigel/collagen with forskolin and EGF; format: cell-based, human; conditions: 3D culture, treatment from day 1, evaluated on day 6
Description: FIGS. 2A-C depict functional nanoparticle-targeting in 3-dimensional culture. FIG. 2A: Human renal epithelia from normal kidney (NK) cells and autosomal dominant polycystic kidney disease (ADPKD) were grown to form cysts in a 3D Matrigel system with collagen in the presence of forskolin and EGF for 1 day followed by different treatments for 5 additional days. All representative live DIC and fluorescence images were taken at 6 days. Control treatment was denoted as vehicle (saline-only). 3D non-cyst/cyst cultures were imaged for nanoparticles uptake, cyst formation and cysts size measurements. The inset images at the right showing the enlarged cystic area taken from the white square boxes selected from the images at the left. Scale bar, 200 μm. FIG. 2B: Percent number of cysts were measured and plotted in bar graphs; each point represents an averaged of replicate.
3D cyst culture and live imaging. […] To assess the effects of vehicle (saline) and different plain and drug-loaded nanoparticles (1 mg/mL) were added (10 μL) on day one after stimulation with forskolin and cyst formation were evaluated on day 6. The cyst growth was observed by using Nikon live cell microscope using its DIC and fluorescence capabilities. […] Using ×20 lens, the number of cysts and their sizes (in diameter) in each well was counted and measured using an ocular scale from the Nikon Eclipse Imaging Software. […]

mTOR signaling pathway = test: Immunoblotting of p-S6K and p-S6 in kidney lysates; format: in vivo, mice; conditions: end of 9 weeks of therapy
Description: Drug-NPs were administered intravenously once, while drug-only was intravenously injected daily. N=5. […] Total-S6K (t-S6K), total-S6 (t-S6) and equal loading control (GAPDH). N=3. FIG. 4C: Immunoblot data for p-S6K in bar graphs. […] Statistical analysis was performed using ANOVA followed by Tukey's multiple comparison test.
Immunoblotting. After the completion of in-life studies, mice treated with the different control, plain and drug-loaded nanoparticles were euthanized, and the kidneys were collected and rinsed with PBS. Approximately 100 mg of tissue samples were placed in RIPA buffer supplemented with Complete Protease Inhibitor (MedChemExpress). […] Samples were then centrifuged at 20 000 rpm for 15 min, and the supernatants were collected and subjected to protein quantification. The PAGE (polyacrylamide gel electrophoresis) on 8-10% SDS gels was performed, followed by semi-dry transfer to PVDF membranes using a Bio-Rad Trans-Blot (Turbo Transfer) machine and detection using antibodies against p-S6 (1:000), p-S6K (1:1000), t-S6 (1:2000), t-S6K (1:2000) and GAPDH (1:1,000) (Cell Signaling Technology). Blots were scanned with both calorimetries to image molecular markers and chemiluminescence to capture the protein signal intensity using a BioRad Gel-doc imaging system.

[2] = Drug release from NPs by dialysis and HPLC; format: physicochemical; conditions: monitored over a 7-day period; growth media with serum
From the text: FIGS. 1A-I depict synthesis and characterization of polycystic kidney targeted nanoparticles. FIG. 1A: Schematic representation of synthesis, drug loading and surface functionalization of PLGA nanoparticles. FIG. 1B: The morphological features of the plain (unloaded) and drugs-loaded PLGA nanoparticles were imaged with scanning electron microscopy. Scale bars, 200 nm. FIG. 1C: Hydrodynamic size distribution of unloaded and drugs-loaded nanoparticles. FIG. 1D: Average zeta-potential measurements of unloaded and drugs-loaded nanoparticles. FIG. 1E: Average hydrodynamic size stability measurements of nanoparticles in saline (PBS), mouse plasma and growth media (DMEM) containing fetal bovine serum. […]
For both rapamycin and 4-hydoxy-TEMPO encapsulated nanoparticles (RapaTEMPO-NPs) were synthesized by a combination (1000 mg) and rapamycin (20 mg) and 4-hydoxy-TEMPO (20 mg) (polymer to total drug ratio […]) was chosen. […] XPS spectra of the samples were recorded on a Kratos Analytical AXIS Supra system with a monochromated Al/Ag X-ray source (Al target). Total survey spectra were recorded in a range from 1300 to −5 eV binding energy (dwell time 200 ms, step size 1 eV, 2 sweeps), and all the region scans were conducted with suitable ranges (dwell time 500 ms, step size 0.05 eV and 5 sweeps). […]

[3] = Drug loading of NPs quantified by HPLC; format: physicochemical; conditions: loading into PLGA nanoparticles
Description: For both rapamycin and 4-hydoxy-TEMPO encapsulated nanoparticles (RapaTEMPO-NPs) were synthesized by a combination (1000 mg) and rapamycin (20 mg) and 4-hydoxy-TEMPO (20 mg) (polymer to total drug ratio […]) was chosen. Also, 50 mg of 3,3′-diethylthiadicarbocyanine iodide (Cy5, 680 fluorescent emission agent) was dissolved in 20 mL of DMSO. The mixture was then added into the dispersing phase (40 mL of water with 1.2 mL of 10% Pluronic F-68) dropwise under moderate magnetic stirring (500 rpm, 1 h). For size and shape measurements, synthesized nanomaterials were examined by SEM using a TESCAN GAIA-3 XMH integrated focused ion beam-FESEM electron microscope. […] XPS spectra of the samples were recorded on a Kratos Analytical AXIS Supra system with a monochromated Al/Ag X-ray source (Al target). Total survey spectra were recorded in a range from 1300 to −5 eV binding energy (dwell time 200 ms, step size 1 eV, 2 sweeps), and all the region scans were conducted with suitable ranges (dwell time 500 ms, step size 0.05 eV and 5 sweeps). The FTIR spectra were recorded using a Bruker ALPHA (Platinum-ATR) spectrometer in the diffuse reflectance mode at a resolution of 4 cm^−1. The rapamycin and 4-yydoxy-TEMPO loading efficiencies were quantified by High-Performance Liquid Chromatography (HPLC; SHIMADZU). […]

Pkd2 mice [4] = test: CT imaging of total kidney volume; format: in vivo; conditions: CT at 3, 6 and 9 weeks
Description: FIGS. 20A-C. FIGS. 20A-B depict coronal and trans-axial CT imaging of mice at 3, 6 and 9 weeks of treatment time. FIG. 20C: Plots showing the total kidney volume at 3, 6 and 9 weeks of treatment time.
Because RapaTEMPO-NPs were applied prior to severe cystic development in the kidneys, lateral (FIG. 20A) and cross-section (FIG. 20B) of computerized tomography scans were performed in the kidneys at 3-, 6- and 9-weeks to monitor progression of changes in kidney volume. […] Longitudinal effects on blood pressure were also monitored throughout the treatment period (FIG. 21). The increase in blood pressure in kidney-specific Pkd2 seemed to be associated with expansion of renal cysts leading to compression in renal vasculature and eventual RAAS activation.

polycystic kidneys = conditions: literature; cited from earlier work

SMILES | Body weight (Pkd2 mice [1]) | Body weight (Pkd2 mice [1]; listed as rapamycin-alone) | Cyst number and size (ADPKD cells) | Effect on levels of phosphorylation of S6K and S6 (mTOR signaling pathway) | Time of maximum drug release from NPs [2] | Drug loading, weight ratio drug/NPs [3] | Total kidney volume over treatment time (Pkd2 mice [4]) | Kidney injury and fibrosis (polycystic kidneys)
CO[C@H]1C[C@@H]2CC[C@@H](C)[C@@](O)(O2)C(=O)C(=O)N2CCCC[C@H]2C(=O)O[C@H]([C@H](C)C[C@@H]2CC[C@@H](O)[C@H](OC)C2)CC(=O)[C@H](C)/C=C(\C)[C@@H](O)[C@@H](OC)C(=O)[C@H](C)C[C@H](C)/C=C/C=C/C=C/1C [rapamycin] | reduced | significantly lowered the body weight; also recorded: nor reduces the impediment in body weight gain | – | – | – | – | – | –
CC1(C)CC(O)CC(C)(C)N1[O] [4-hydroxy-[2,2,6,6-tetramethylpiperidin-1-yl]oxidanyl] | – | – | some effect | minimal effect | about 3 days | 34.7±3.1% | no effect in kidney volume expansion | alleviate kidney injury and fibrosis by reducing renal superoxide
